Measurements from patent EP4488279A1, “SUBSTITUTED HEXAHYDRO-2H-PYRAZINO[1,2-A]PYRAZIN-1(6H)-ONE DERIVATIVES AS ACTIVATORS OF HUMAN CASEINOLYTIC PROTEASE P (HSCLPP)” (Centro Atlantico del Medicamento S.A (Ceamed, S.A), priority 2023, dated 2025).
Where two headings read alike, the source gives them in different places.

Assays:
Yeast - HsCIpP = assay: Yeast growth inhibition screen, yeast without human ClpP (selectivity control); format: cell-based; settings: Saccharomyces cerevisiae, read-out: Yeast - HsCIpP GI50
Experimental: (§1) These cells contain mutants in YRS1, YRR1, PDR1 and PDR3 genes, which are involved in polydrug and pleiotropic resistance networks.
(§2) The yeast (both HsCpIP+ and HsCIpP-) are incubated in petri dishes with YPD (Yeast extract peptone dextrose) at 25 °C overnight, after which a colony is isolated, suspended in a flask with fresh YPD and incubating again under the same conditions but with agitation. […] 100 µl of this solution was then placed into the appropriated wells of a standard 96-well plate. Stock solutions (DMSO, 10 mM) of the compounds to be tested are diluted in YPD to 2X of their final concentrations to be tested, and 100 µl added to the appropriate wells. 100 µl of YPD was added to wells designated as the negative control wells, while ONC206 (0.5 µM) was used as the positive control. Once all compounds were added to the plate, an initial T = 0 absorbance value was recorded at 600 Nm. The plate was then incubated at 25 °C with gentle shaking for 24 h. The plates can either be read at multiple time points using a TECAN Spark® Multimode Microplate Reader, or at the end of the experiment using a standard spectrophotometer.
(§3) Table 2: Growth inhibition (GI50) values for compounds of the present invention in yeast containing HsCIpP, and yeast without HsCIpP.

MDA-MB-231 = assay: MTT cell viability assay, MDA-MB-231; format: cell-based; settings: Homo sapiens, MDA-MB-231 cells, 72 H, average of at least two independent experiments
Experimental: This a human breast cancer cell line derived from a metastatic site from a person.
(§4) Cell viability was assayed by measuring the mitochondrial reduction of the tetrazolium salt 3-(4,5-methyltiazol-2yl)-2,5diphenyl-tetrazolium bromide] (MTT) (Applichen; A2231,0010) [Mosmann T. J Immunol Methods. […] Oncogene. […] Cells were seeded at a density according to their exponential growth phase (normally 1000 to 5000/well). The cells were cultured at 37 °C in the dark in air containing 5% CO2. After 24h either vehicle (0.05% DMSO), or drug, was added to culture medium at the indicated concentrations (10 to 0,01microM). After another 72 h, MTT (0.3 mg/ml) was added to cells, followed by incubation for 2-4h at 37 °C in the dark. The medium was then removed, and the precipitated formazan was solubilized by the addition of DMSO (200 µL).

Yeast + HsCIpP = assay: Yeast growth inhibition screen, yeast expressing human ClpP; format: cell-based; settings: Saccharomyces cerevisiae, 24 h, read-out: Yeast + HsCIpP GI50
From the text: This technique allows to directionally assemble several DNA fragments into one single DNA piece. It is based on plasmid libraries that share the same DNA backbone but differ in the type of the insert. The assembly of the final cassette is based on the "Golden Gate Cloning" method. Human CLPP gene sequence (codon-optimized for yeast translation) was amplified with well-designed primers from a plasmid kindly provided by Dr. Michael David Tyers (University of Montreal). Once amplified, a MoClo reaction was performed to obtain the final integrative cassette. This cassette was composed as follows: • Type 1: ConLS 3' connector. • Type 2: TDH3 gene promoter (strong and constitutive expression). • Type 3: Amplified human CLPP gene. • Type 4: ADH1 gene terminator. • Type 5: ConR1 5' connector. • Type 6: LEU2 gene as selectable marker for yeast. • Type 7: 3' HO gene homology sequence for yeast integration. • Type 8a: KanR-ColE1 sequence for bacterial amplification and antibiotic resistance. • Type 8b: 5' HO gene homology sequence for yeast integration.
Digestion patterns with several restriction enzymes were carried out to confirm the success of the MoClo system. An extra restriction enzyme reaction (Notl) was performed to linearize the DNA fragment and deplete the bacterial part.
as §1
Yeast cells were transformed with the linearized cassette and transformant colonies were selected on minimum media without leucine. Independent clones were checked by PCR and positive ones were stored at -80 °C until use.
as §2, §3

4T1 = assay: MTT cell viability assay, 4T1; format: cell-based; settings: Mus musculus, read-out: IC50 4T1 48 H
Experimental: This a mouse epithelial breast cancer cell line classified as being triple negative and mimics human breast cancer; stage IV.
as §4, with “After another 72 h, MTT (0.3 mg/ml) was added to cells, followed by incubation for 2-4h at 37 °C in the dark.” left out

PANC1 = assay: MTT cell viability assay, PANC1; format: cell-based; settings: Homo sapiens, PANC-1, PANC1 cells, 72 H, average of at least two independent experiments
Experimental: This a human cancer cell line derived from the pancreas of a person.
as §4

U2 OS = assay: MTT cell viability assay, U2 OS; format: cell-based; settings: Homo sapiens, U2OS, U2 OS cells, 72 H, average of at least two independent experiments
Experimental: U2 OS [American Type Culture Collection (ATCC) reference number HTB-96]. This is a human bone cancer (a moderately differentiated sarcoma) cell derived from an osteosarcoma patient.
as §4

DU-145 = assay: MTT cell viability assay, DU-145; format: cell-based; settings: Homo sapiens, DU-145 cells, 72 H, average of at least two independent experiments
Experimental: This a human prostate cancer cell line derived from a metastatic site (brain) of a person.
as §4

MDA-MB-231 cells = assay: cells; settings: for GI50 / CC50: Homo sapiens, MDA-MB-231, 72 h; for CC50: read-out: LC50; for Result / TGI50: MDA-MB-231 72 H, SRB; for Result: cytostatic or not; for TGI50: total growth inhibition concentration
Experimental: In order to measure the cell population at the time zero (Tz) a plate of cells was stained with SRB 24 hours after seeding. The cell monolayers are fixed with cold 5% (w/v) trichloroacetic acid for 60 minutes at 4°C. The excess of trichloroacetic acid is removed by washing five times with distilled water. Sulforhodamine B (SRB) solution [50 µL at 0.4%(w/v) in 1% acetic acid] is added to each well and plates are incubated for 8 minutes at room temperature. The excess dye is removed by washing five times with 1% (v/v) acetic acid. The bound stain is subsequently solubilized with (100 µL) 10 mM trizma base and the absorbance is read on automated plate reader at a wavelength of 550 nm.
Compounds at various concentrations were added to an identical cell-seeded (non-treated) plate and incubated at 37°C (5% CO2) for an additional […]. Cells were fixed and stained following the same protocol. The measurement of the cell population after 72 hours in the presence of the drug is (Ti). Several wells in the same plate were treated with the control vehicle.
Using the absorbance measurements, time zero (Tz), control growth (C), and test growth in the present of the compound (Ti) the percentage growth inhibition is calculated as: • [(Ti-Tz)/(C-Tz)] x 100 for concentrations for which Ti >/= Tz • [(Ti-Tz)/Tz] x 100 for concentrations for which Ti <Tz
These values were determined using GraphPad software v5 (San Diego, CA).

[1] = yeast without HsCIpP, 24 h at 25 °C, absorbance at 600 nm
[2] = 4T1 cells, 48 H, MTT, average of at least two independent experiments

| SMILES | GI50 (Yeast - HsCIpP; [1]) | IC50 (MDA-MB-231) | GI50 (Yeast + HsCIpP) | IC50 (4T1; [2]) | IC50 (PANC1) | IC50 (U2 OS) | IC50 (DU-145) | GI50 (MDA-MB-231 cells) | CC50 (MDA-MB-231 cells) | Result (MDA-MB-231 cells) | TGI50 (MDA-MB-231 cells) | GI50 (Yeast - HsCIpP; 24 h) | IC50 (4T1; 4T1, 48 h) |
| --- | --- | --- | --- | --- | --- | --- | --- | --- | --- | --- | --- | --- | --- |
| N#Cc1cccc(CN2CCN3CCN(Cc4ccc(F)cc4)C(=O)C3C2)c1 (centres unmarked) [Compound 1] | > 10 µM | 120 nM | 150 nM | 103 nM | 195 nM | 220 nM | 200 nM |  |  |  |  |  |  |
| N#Cc1cccc(CN2CCN3CCN(Cc4cccc(Cl)c4)C(=O)C3C2)c1 (centres unmarked) [Compound 2] | > 10 µM | 145 nM | 120 nM | 165 nM | 140 nM | 250 nM | 250 nM |  |  |  |  |  |  |
| N#Cc1cccc(CN2CCN3CCN(Cc4ccc(Cl)cc4)C(=O)C3C2)c1 (centres unmarked) [Compound 3] | > 10 µM | < 100 nM | 65 nM | < 100 nM | < 100 nM | < 100 nM | < 100 nM | < 100 nM | > 10 µM | Cytostatic | >10 µM |  |  |
| O=C1C2CN(Cc3cccc(F)c3)CCN2CCN1Cc1ccc(F)cc1 (centres unmarked) [Compound 5] | > 10 µM | 240 nM | 140 nM | 190 nM | 250 nM | 400 nM | 300 nM |  |  |  |  |  |  |
| O=C1C2CN(Cc3cccc(F)c3)CCN2CCN1Cc1ccc(Cl)cc1 (centres unmarked) [Compound 6] | > 10 µM | 190 nM | 60 nM | 150 nM | 190 nM | 300 nM | 250 nM |  |  |  |  |  |  |
| O=C1C2CN(CCCCC(F)(F)F)CCN2CCN1Cc1ccc(F)cc1 (centres unmarked) [Compound 7] | > 10 µM | 430 nM | 2050 nM | 340 nM | 330 nM | 500 nM | 500 nM |  |  |  |  |  |  |
| O=C1C2CN(CCCCC(F)(F)F)CCN2CCN1Cc1ccc(C(F)(F)F)cc1 (centres unmarked) [Compound 8] | > 10 µM | 400 nM | 1650 nM | 310 nM | 350 nM | 2000 nM |  |  |  |  |  |  |  |
| O=C1C2CN(Cc3ccccc3)CCN2CCN1Cc1cccc(Cl)c1 (centres unmarked) [Compound 9] | > 10 µM | 935 nM | 690 nM | 930 nM | 830 nM | 1140 nM | 1080 nM |  |  |  |  |  |  |
| O=C1C2CN(Cc3ccccc3)CCN2CCN1Cc1ccc(C(F)(F)F)cc1 (centres unmarked) [Compound 10] | > 10 µM | 635 nM | 180 nM | 650 nM | 640 nM | 1000 nM | 640 nM |  |  |  |  |  |  |
| O=C1C2CN(Cc3ccccc3)CCN2CCN1Cc1ccc(F)cc1 (centres unmarked) [Compound 11] | > 10 µM | 490 nM | 620 nM | 515 nM | 600 nM | 800 nM | 410 nM |  |  |  |  |  |  |
| N#Cc1cccc(CN2CCN3CCN(Cc4ccc(C(F)(F)F)cc4)C(=O)C3C2)c1 (centres unmarked) [Compound 12] | > 10 µM | < 100 nM | 75 nM | < 100 nM | < 100 nM | 200 nM | 100 nM | < 100 nM | > 10 µM | Cytostatic | >10 µM |  |  |
| O=C1C2CN(Cc3cccc(F)c3)CCN2CCN1Cc1cccc(C(F)(F)F)c1 (centres unmarked) [Compound 13, 8-(3-fluorobenzyl)-2-(3-(trifluoromethyl)benzyl)hexahydro-2H-pyrazinof1,2-alpyrazin-1(6H)-one] | > 10 µM | 190 nM | 40 nM | 170 nM | 165 nM | 300 nM | 250 nM | 420 nM | > 10 µM | Cytostatic | >10 µM |  |  |
| O=C1C2CN(Cc3ccc(C(F)(F)F)cc3)CCN2CCN1Cc1ccc(C(F)(F)F)cc1 (centres unmarked) [Compound 14, 8-(4-trifluoromethylbenzyl)-2-(4-(trifluoromethyl)benzyl)hexahydro-2H-pyrazino[1,2-a]pyrazin-1(6H)-one] |  |  | 2580 nM | 2220 nM | 240 nM |  |  |  |  |  |  | > 10 µM |  |
| Cc1ccccc1CN1C(=O)C2=C(CCN(Cc3ccccc3)C2)N2CCN=C12 [ONC201, reference compound] |  | 2280 nM |  |  | 1720 nM | 4800 nM | 1710 nM |  |  | Cytostatic | >10 µM |  | 2220 nM |
| O=C1C2=C(CCN(Cc3ccccc3)C2)N2CCN=C2N1Cc1ccc(F)cc1F [ONC206, reference compound] |  | 600 nM | 4560 nM | 600 nM | 300 nM | 800 nM | 370 nM | 730 nM |  | Cytostatic | >10 µM | > 10 µM |  |
